IC50 data for twelve compounds are collected here from patent EP0674651B1, “SUBSTITUTED 6-AZAANDROSTENONES” (priority 1992, dated 1994).

Molecules are shown by their SMILES. Bounds are passed on as bounds.

In general, IC50 refers to the concentration at which inhibition is half-maximal. A high value points to weaker potency.

Assay [1] concerns the target T1, human type 1 5α-reductase (Homo sapiens, UniProt P18405).
T1 sequence (P18405 1-259): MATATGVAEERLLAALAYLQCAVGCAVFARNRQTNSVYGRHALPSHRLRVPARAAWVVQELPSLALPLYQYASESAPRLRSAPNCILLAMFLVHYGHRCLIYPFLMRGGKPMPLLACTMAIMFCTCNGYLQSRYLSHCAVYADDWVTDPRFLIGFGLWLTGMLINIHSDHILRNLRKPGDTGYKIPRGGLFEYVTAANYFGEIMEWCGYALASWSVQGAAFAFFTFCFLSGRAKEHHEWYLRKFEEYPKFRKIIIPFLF
The assay is described as follows: 5α-reductase in vitro inhibitory activity, human type 1.

The target of assay [2] is T2, human type 2 5α-reductase (Homo sapiens, UniProt P31213).
T2 sequence (P31213 1-254): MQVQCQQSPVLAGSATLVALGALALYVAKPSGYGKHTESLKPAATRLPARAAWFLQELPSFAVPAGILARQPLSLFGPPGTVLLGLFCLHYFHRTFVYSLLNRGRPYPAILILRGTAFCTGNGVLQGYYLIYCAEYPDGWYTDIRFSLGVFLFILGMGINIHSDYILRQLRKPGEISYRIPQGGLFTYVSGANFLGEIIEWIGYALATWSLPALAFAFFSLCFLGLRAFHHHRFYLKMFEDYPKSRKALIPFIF
The assay is described as follows: 5α-reductase in vitro inhibitory activity, human type 2.
Protocol: Microsomes were prepared by homogenization of the tissue or cells, followed by differential centrifugation of the homogenate. […] Corresponding incubations were carried out with no test compound as a control study.
The percentage of conversion of testosterone to DHT in the presence of test compounds compared to the corresponding conversion in the control study was estimated using high pressure liquid chromatography (HPLC) with radiochemical detection.

For the compound `CC(C)(C)c1ccc(C(NC(=O)[C@H]2CC[C@H]3[C@@H]4CNC5=CC(=O)CC[C@]5(C)[C@H]4CC[C@]23C)c2ccccc2)cc1` (stereo partly drawn) [Compound 67, 17β-N-(1 -Phenyl-1-(4-t-butyl)phenyl)methyl-carbamoyl-6-azaandrost-4-en-3-one], the concentration for half-maximal inhibition (IC50) in assay [1] is over 100 nM; in assay [2], under 10 nM.

For the compound `CC(C)(C)c1cc(Br)ccc1NC(=O)[C@H]1CC[C@H]2[C@@H]3CNC4=CC(=O)CC[C@]4(C)[C@H]3CC[C@]12C` [Compound 77, 17β-N-(4-Bromo-2-t-butyl)phenyl-carbamoyl-6-azaandrost-4-en-3-one], the IC50 in assay [1] and in assay [2] was under 10 nM throughout.

With `C[C@]12CC[C@H]3[C@@H](CNC4=CC(=O)CC[C@@]43C)[C@@H]1CC[C@@H]2C(=O)Nc1cccc2c1C(=O)c1ccccc1-2` [Compound 138, 17β-N-1-(9-Fluorenonyl)-carbamoyl-6-azaandrost-4-en-3-one], the values for the IC50 in assay [1] and in assay [2] were 10 to 100 nM and under 10 nM, respectively.

As for `CC(C)c1cc(C(C)C)c(C(=O)[C@H]2CC[C@H]3[C@@H]4CNC5=CC(=O)CC[C@]5(C)[C@H]4CC[C@]23C)c(C(C)C)c1` [Compound 60, 17β-(1-Oxo-1-((2,4,6-tri-i-propyl)phenyl)methyl)-6-azaandrost-4-en-3-one], the IC50 in assay [1] was over 100 nM; in assay [2] it was 10 to 100 nM.

For the compound `CC(C)(C)c1ccc(NC(=O)[C@H]2CC[C@H]3[C@@H]4CNC5=CC(=O)CC[C@]5(C)[C@H]4CC[C@]23C)c(Br)c1` [Compound 71, 17β-N-(2-Bromo-4-t-butyl)phenyl-carbamoyl-6-azaandrost-4-en-3-one], the IC50 in assay [1] was 10 to 100 nM; in assay [2] it was under 10 nM.

As to `C[C@]12CC[C@H]3[C@@H](CNC4=CC(=O)CC[C@@]43C)[C@@H]1CC[C@@H]2C(=O)Nc1cccc(C(=O)O)c1` [Compound 137, 17β-N-(3-Carboxy)phenyl-carbamoyl-6-azaandrost-4-en-3-one], the IC50 was over 100 nM in assay [1] and under 10 nM in assay [2].

As to `CC(C)(C)c1ccc(NC(=O)[C@H]2CC[C@H]3[C@@H]4CNC5=CC(=O)CC[C@]5(C)[C@H]4CC[C@]23C)c(Cl)c1` [Compound 72, 17β-N-(2-Chloro-4-t-butyl)phenyl-carbamoyl-6-azaandrost-4-en-3-one], the IC50 in assay [1] was 10 to 100 nM; in assay [2], under 10 nM.

Consider `CCc1cccc(CC)c1NC(=O)[C@H]1CC[C@H]2[C@@H]3CNC4=CC(=O)CC[C@]4(C)[C@H]3CC[C@]12C` [Compound 76, 17β-N-(2,6-Diethyl)phenyl-carbamoyl-6-azaandrost-4-en-3-one], for which the IC50 is 10 to 100 nM in assay [1] and under 10 nM in assay [2].

Consider `Cc1cccc(C(C)(C)C)c1NC(=O)[C@H]1CC[C@H]2[C@@H]3CNC4=CC(=O)CC[C@]4(C)[C@H]3CC[C@]12C` [Compound 62, 17β-N-(2-t-Butyl-6-methyl)phenyl-carbamoyl-6-azaandrost-4-en-3-one], for which the figures for the IC50 in assay [1] and in assay [2] were over 100 nM and under 10 nM, respectively.

Take `CCc1c(Cl)cc(Cl)c(CC)c1NC(=O)[C@H]1CC[C@H]2[C@@H]3CNC4=CC(=O)CC[C@]4(C)[C@H]3CC[C@]12C` [Compound 54, 17β-N-(2,6-Diethyl-3,5-dichloro)phenyl-carbamoyl-6-azaandrost-4-en-3-one]: the IC50 in assay [1] was 10 to 100 nM; in assay [2] it was under 10 nM.

For `CC1=C2NC[C@H]3[C@@H]4CC[C@H](C(=O)Nc5cc(C(F)(F)F)ccc5C(F)(F)F)[C@@]4(C)CC[C@@H]3[C@@]2(C)CCC1=O` [Compound 116, 17β-N-(2,5-bis(Trifluoromethyl))phenyl-carbamoyl-6-azaandrost-4-methyl-4-en-3-one], the IC50 in assay [1] and in assay [2] was under 10 nM in each case.

Turning to `C[C@]12CC[C@H]3[C@@H](CNC4=CC(=O)CC[C@@]43C)[C@@H]1CC[C@@H]2C(=O)Nc1cc(C(F)(F)F)ccc1Oc1ccc(Cl)cc1` [Compound 81, 17β-N-(2-(O-4-Chlorophenyl)-5-trifluoromethyl)phenyl-carbamoyl-6-azaandrost-4-en-3-one], the figures for the IC50 in assay [1] and in assay [2] were 10 to 100 nM and under 10 nM, respectively.
